“And” between values parts separate entries of the source, which are not always exact repeats. Identical values can stand only once. Peptide text beside a SMILES is read from it.
Assays:
MCAO model rats [1] = experiment: Therapeutic effect on MCAO model rats (cerebral infarction volume, TTC staining); details: rat, in vivo
Protocol: The focal cerebral ischemia-reperfusion model was prepared according to the reversible middle cerebral artery occlusion (MCAO) suture method proposed by Longa with modifications in view of the anatomical structure of the rat brain. The rats were anesthetized by intraperitoneal administration of 10% chloral hydrate at a dose of […]. After anesthetization, a cut was created at the cervical midline, and the common carotid artery (CCA), external carotid artery (ECA) and pterygopalatine artery were exposed. The head portion (0.5 cm) of a monofilament nylon fishing line (0.26 mm) was coated with paraffin and a mark was made at 20 mm. All rats were inserted through the right CCA incision, and the pterygopalatine artery was temporarily clamped to prevent mis-insertion. The length of the occlusion line was about 18-20 mm from the bifurcation of CCA depending on the animal's weight, thereby occluding middle cerebral artery on the right side. The skin was then sewed, and the tail end of the occlusion line was partially fixed to the skin. After a period of ischemia for 2 hours, the occlusion line was carefully pulled out to form a reperfusion. The procedure steps for the sham control were the same as the surgery group, except for insertion of a nylon fishing line. The body temperature was maintained at 37±0.5° C. during the ischemia period and 2 h after reperfusion.
The used animals were male adult SD rats (Vittalia) of SPF grade with body weight of 220-250 g.
No drug was administered to the normal group and the sham group.
The rats were sacrificed by decapitation after scoring. The brain tissues were quickly removed and placed in a refrigerator at −20° C. After 10 minutes, the tissues were placed in a room temperature environment. The brains were placed in a rat brain section mold. After the olfactory bulb, cerebellum and low brain stem were removed, the brains were coronally cut five times at 2 mm thickness as shown in the profile to obtain six continuous raw coronal slices. Then, the brain sections were quickly placed in a 5 ml solution containing 2% TTC, and incubated at 37° C. for 30 minutes in the dark, during which the brain sections were flipped once every 5 minutes. With the TTC staining, the normal tissue would be rose red, and the infarcted tissue would be unstained and retained white. Each group of brain sections was arranged neatly, and photographed. The photos were processed by an image analysis system software and statistically analyzed. The infarction area of each brain section was calculated, and multiplied by the thickness of each brain section (2 mm). The products of the infarction area of individual brain section multiplied by the thickness were summed to obtain the cerebral infarction volume for each animal. The volumes were expressed as percentages accounting for the cerebral hemisphere to eliminate the effects of cerebral edema.

MCAO model rats [2] = experiment: HE staining for histological changes of rat brain after ischemia; type: in vivo; details: 10 mg/kg, 24 h after ischemia
Protocol: The rats in each group were decapitated at 24 h after ischemia, and the resultant brain was coronally sectioned near the optic chiasm with a thickness of about 4 mm. The sections were fixed with 10% formalin solution and dehydrated with alcohol with a concentration gradient from 70% to 100%. The sections were permeabilized twice in xylene, and embedded in paraffin. The paraffin block was carefully trimmed, and immobilized on a paraffin slicing machine, and sliced to sections with a thickness of 4 μm. The paraffin sections were completely unfolded, attached to a clean and dry glass slide, and stored in a refrigerator at 4° C. Conventional HE staining was performed, and the staining results were observed by light microscopy.

rats = experiment: Acute toxicity test on rats; type: in vivo, rat; details: dose of 200 mg/kg body weight
Protocol: Acute toxicity tests were performed on rats.

| Compound | Mean of infarction volume percentage (%) (MCAO model rats [1]) | Mean of infarction volume percentage (%) (MCAO model rats [1]; 1 mg/kg) | Reduction of infarction volume percentage vs model group (MCAO model rats [1]; 1 mg/kg) | Mean of infarction volume percentage (%) (MCAO model rats [1]; 3 mg/kg) | Reduction of infarction volume percentage vs model group (MCAO model rats [1]; 3 mg/kg) | Mean of infarction volume percentage (%) (MCAO model rats [1]; 10 mg/kg) | pathological changes of brain tissue (HE staining) (MCAO model rats [2]; prophylactic administration) | pathological changes of brain tissue (HE staining) (MCAO model rats [2]; therapeutic administration) | acute toxicity (rats) |
| --- | --- | --- | --- | --- | --- | --- | --- | --- | --- |
| CC[C@H](C)[C@H](NC(=O)[C@H](CCC(=O)O)NC(=O)[C@@H](NC(=O)[C@H](CC(=O)O)NC(=O)[C@H](CC(C)C)NC(=O)[C@H](CC(C)C)NC(=O)[C@H](CCCCN)NC(=O)[C@H](CCC(=O)O)NC(=O)[C@H](Cc1ccc(O)cc1)NC(=O)[C@H](CCCNC(=N)N)NC(=O)[C@H](CCCNC(=N)N)NC(=O)[C@H](CCCNC(=N)N)NC(=O)[C@H](CCC(N)=O)NC(=O)[C@H](CCCNC(=N)N)NC(=O)[C@H](CCCNC(=N)N)NC(=O)[C@H](CCCCN)NC(=O)[C@H](CCCCN)NC(=O)[C@H](CCCNC(=N)N)NC(=O)CNC(=O)[C@@H](N)Cc1ccc(O)cc1)[C@@H](C)O)C(=O)O [P5] | 24.84% and 36.54% and 43.22% | 44.23% | 3.76% | 35.66% | 22.41% | 19.54% | significantly improved | significantly improved | no lethal effect and other obvious toxic side effects |
| CC[C@H](C)[C@H](NC(=O)[C@H](CO)NC(=O)[C@H](CO)NC(=O)[C@H](CC(C)C)NC(=O)[C@H](CCCCN)NC(=O)[C@H](CCCNC(=N)N)NC(=O)[C@H](CCCNC(=N)N)NC(=O)[C@H](CCCNC(=N)N)NC(=O)[C@H](CCC(N)=O)NC(=O)[C@H](CCCNC(=N)N)NC(=O)[C@H](CCCNC(=N)N)NC(=O)[C@H](CCCCN)NC(=O)[C@H](CCCCN)NC(=O)[C@H](CCCNC(=N)N)NC(=O)CNC(=O)[C@@H](N)Cc1ccc(O)cc1)C(=O)N[C@@H](CCC(=O)O)C(=O)N[C@@H](CO)C(=O)N[C@@H](CC(=O)O)C(=O)N[C@H](C(=O)O)C(C)C [NA-1, reference compound] (H-YGRKKRRQRRRKLSSIESDV-OH) | 38.56% | – | – | – | – | – | – | – | – |
| CC[C@H](C)[C@H](NC(=O)[C@H](CO)NC(=O)[C@H](CO)NC(=O)[C@H](CC(C)C)NC(=O)[C@H](CCCCN)NC(=O)[C@H](CCC(=O)O)NC(=O)[C@H](Cc1ccc(O)cc1)NC(=O)[C@H](CCCNC(=N)N)NC(=O)[C@H](CCCNC(=N)N)NC(=O)[C@H](CCCNC(=N)N)NC(=O)[C@H](CCC(N)=O)NC(=O)[C@H](CCCNC(=N)N)NC(=O)[C@H](CCCNC(=N)N)NC(=O)[C@H](CCCCN)NC(=O)[C@H](CCCCN)NC(=O)[C@H](CCCNC(=N)N)NC(=O)CNC(=O)[C@@H](N)Cc1ccc(O)cc1)C(=O)N[C@@H](CCC(=O)O)C(=O)N[C@@H](CO)C(=O)N[C@@H](CC(=O)O)C(=O)N[C@H](C(=O)O)C(C)C [YE-NA-1] (H-YGRKKRRQRRRYEKLSSIESDV-OH) | 33.96% | – | – | – | – | – | – | – | – |

— patent publication US11541098B2, “Peptide composition for treating excitatory neurotoxicity related injuries” (Biocells (Beijing) Biotech Co., Ltd., priority 2017, dated 2023)
